Reference: ChEMBL document CHEMBL1201862, “PubChem BioAssay data set” (2004)
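In this assay, cells in 96-well plates receive the compound at five concentrations for 48 hours. Endpoints are linearly interpolated between the surrounding concentrations. Abbreviation: GI50, concentration required for 50% inhibition of growth.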 Calls of active or inactive are those of the source. Cut-off read from the data, not from the text of the source: active = GI50 up to about 1.1 µM and inactive = higher. Where a SMILES comes first, the peptide text is derived from it. The star is where a group is joined. Boc = CC(C)(C)OC(=O)*

Legend:
Test in all cases: DTP human tumour cell line panel, 48 h
MOLT-4 = test system: MOLT-4
CAKI-1 = test system: CAKI-1
786-0 = test system: 786-0
SF-295 = test system: SF-295
SF-539 = test system: SF-539
Hs-578T = test system: Hs-578T
NCI-H23 = test system: NCI-H23
NCI/ADR-RES = test system: NCI/ADR-RES
BT-549 = test system: BT-549
SNB-19 = test system: SNB-19
SNB-75 = test system: SNB-75
COLO 205 = test system: COLO 205
NCI-H226 = test system: NCI-H226
HCT-116 = test system: HCT-116
UO-31 = test system: UO-31
NCI-H522 = test system: NCI-H522
RXF 393 = test system: RXF 393
LOX IMVI = test system: LOX IMVI
OVCAR-4 = test system: OVCAR-4
HOP-92 = test system: HOP-92
SF-268 = test system: SF-268
SR = test system: SR
HOP-62 = test system: HOP-62
SK-MEL-28 = test system: SK-MEL-28
EKVX = test system: EKVX
SK-MEL-5 = test system: SK-MEL-5
Malme-3M = test system: Malme-3M
M14 = test system: M14
RPMI-8226 = test system: RPMI-8226
UACC-257 = test system: UACC-257
A498 = test system: A498
KM12 = test system: KM12
NCI-H460 = test system: NCI-H460
SW-620 = test system: SW-620
SK-MEL-2 = test system: SK-MEL-2
IGROV-1 = test system: IGROV-1
A549 = test system: A549
SK-OV-3 = test system: SK-OV-3
TK-10 = test system: TK-10
OVCAR-8 = test system: OVCAR-8
OVCAR-5 = test system: OVCAR-5
HCT-15 = test system: HCT-15
OVCAR-3 = test system: OVCAR-3
DU-145 = test system: DU-145
MDA-N = test system: MDA-N
HT-29 = test system: HT-29
K562 = test system: K562
HCC 2998 = test system: HCC 2998
ACHN = test system: ACHN
U-251 = test system: U-251
HL-60 = test system: HL-60
CCRF-CEM = test system: CCRF-CEM
SN12C = test system: SN12C
PC-3 = test system: PC-3
MCF7 = test system: MCF7
T47D = test system: T47D
MDA-MB-231 = test system: MDA-MB-231
UACC-62 = test system: UACC-62
MDA-MB-435 = test system: MDA-MB-435

Measured: GI50

Cc1cc(S(=O)(=O)Nc2nc(N)nc(N3N=CCC3C)n2)c(S)cc1Cl (centres undefined)
inactive: MOLT-4 > 10 µM | CAKI-1 > 10 µM | 786-0 > 10 µM | SF-295 > 10 µM | SF-539 > 10 µM | Hs-578T > 10 µM | NCI-H23 > 10 µM | NCI/ADR-RES > 10 µM | BT-549 > 10 µM | SNB-19 > 10 µM | SNB-75 > 10 µM | COLO 205 > 10 µM | NCI-H226 > 10 µM | HCT-116 > 10 µM | UO-31 > 10 µM | NCI-H522 > 10 µM | RXF 393 > 10 µM | LOX IMVI > 10 µM | OVCAR-4 > 10 µM | HOP-92 > 10 µM | SF-268 > 10 µM | SR > 10 µM | HOP-62 > 10 µM | SK-MEL-28 > 10 µM | EKVX > 10 µM | SK-MEL-5 > 10 µM | Malme-3M > 10 µM | M14 > 10 µM | RPMI-8226 > 10 µM | UACC-257 > 10 µM | A498 > 10 µM | KM12 > 10 µM | NCI-H460 > 10 µM | SW-620 > 10 µM | SK-MEL-2 > 10 µM | IGROV-1 > 10 µM | A549 > 10 µM | SK-OV-3 > 10 µM | TK-10 > 10 µM | OVCAR-8 > 10 µM | OVCAR-5 > 10 µM | OVCAR-3 > 10 µM | DU-145 > 10 µM | MDA-N > 10 µM | HT-29 > 10 µM | K562 > 10 µM | HCC 2998 > 10 µM | ACHN > 10 µM | U-251 > 10 µM | HL-60 > 10 µM | CCRF-CEM > 10 µM | SN12C > 10 µM | PC-3 > 10 µM | MCF7 > 10 µM | T47D > 10 µM
> 10 µM: HCT-15

O=C(NCCC1([N+](=O)[O-])CCN(C(=O)c2ccccc2)CC1)c1ccccc1
> 100 µM: HCT-15
active: HOP-92 < 0.01 µM
inactive: MOLT-4 > 100 µM | CAKI-1 42.3 µM | MDA-MB-231 > 100 µM | 786-0 > 100 µM | SF-295 > 100 µM | SF-539 > 100 µM | Hs-578T > 100 µM | NCI-H23 > 100 µM | NCI/ADR-RES > 100 µM | BT-549 > 100 µM | SNB-19 > 100 µM | COLO 205 53.7 µM | NCI-H226 > 100 µM | HCT-116 > 100 µM | UO-31 55.2 µM | NCI-H522 > 100 µM | RXF 393 67 µM | OVCAR-4 52 µM | SF-268 > 100 µM | SR > 100 µM | UACC-62 57.4 µM | EKVX > 100 µM | SK-MEL-5 37.2 µM | Malme-3M 56.5 µM | M14 > 100 µM | RPMI-8226 58.7 µM | UACC-257 24.7 µM | A498 > 100 µM | KM12 > 100 µM | NCI-H460 35.3 µM | SW-620 > 100 µM | SK-MEL-2 > 100 µM | IGROV-1 > 100 µM | A549 > 100 µM | SK-OV-3 > 100 µM | TK-10 > 100 µM | OVCAR-8 > 100 µM | OVCAR-5 > 100 µM | MDA-MB-435 26.7 µM | DU-145 > 100 µM | MDA-N 47.1 µM | HT-29 45.6 µM | K562 > 100 µM | ACHN > 100 µM | U-251 > 10 µM | HL-60 > 100 µM | CCRF-CEM > 100 µM | SN12C > 100 µM | PC-3 > 100 µM | T47D > 100 µM

CC(NC(=O)C(NC(=O)OC(C)(C)C)C(C)C)C(=O)NCC(=O)O (stereo not drawn) (Boc-Val-Ala-Gly-OH; configuration not given here)
inactive: MOLT-4 > 100 µM | CAKI-1 > 100 µM | 786-0 > 100 µM | SF-295 > 100 µM | SF-539 > 100 µM | Hs-578T > 100 µM | NCI-H23 > 100 µM | NCI/ADR-RES > 100 µM | BT-549 > 100 µM | SNB-19 > 100 µM | COLO 205 > 100 µM | NCI-H226 > 10 µM | HCT-116 > 100 µM | UO-31 > 100 µM | NCI-H522 > 100 µM | RXF 393 > 100 µM | HOP-92 > 100 µM | SF-268 > 100 µM | SR > 100 µM | HOP-62 > 100 µM | SK-MEL-28 > 100 µM | UACC-62 > 100 µM | EKVX > 100 µM | SK-MEL-5 > 100 µM | Malme-3M > 100 µM | M14 > 100 µM | RPMI-8226 > 100 µM | UACC-257 > 100 µM | KM12 > 100 µM | NCI-H460 > 100 µM | SW-620 > 100 µM | SK-MEL-2 > 100 µM | IGROV-1 > 100 µM | A549 > 100 µM | SK-OV-3 > 100 µM | TK-10 > 100 µM | OVCAR-8 > 100 µM | OVCAR-5 > 100 µM | OVCAR-3 > 100 µM | MDA-MB-435 > 100 µM | DU-145 > 100 µM | MDA-N > 100 µM | HT-29 > 100 µM | K562 > 100 µM | HCC 2998 > 100 µM | ACHN > 100 µM | U-251 > 100 µM | SN12C > 100 µM | PC-3 > 100 µM | T47D > 100 µM
> 100 µM: HCT-15
